Assay results published in patent US8618074B2, “GPCR enhanced neuroprotection to treat brain injury” (Board of Regents of the University of Texas System, priority 2007, dated 2013).

What was measured:
Mouse cortical neurons = experiment: Neuronal survival in transwell co-culture with astrocytes under t-buOOH oxidative stress (Hoechst/calcein); assay type: cell-based
Method: (§1) Primary cultures of astrocytes were prepared as previously published (Lin et al., 2005). C57BL/6 male mice were purchased from the National Institute of Aging and maintained in standard accredited housing conditions at the University of Texas Health Science Center Animal Facility. Animal protocols were approved by our Institutional Animal Care Use Committee. Astrocytes were cultured in DMEM F-12 media (Invitrogen, # 11039-021) supplemented with 2 mM glutamine, nonessential amino acids, 10% fetal calf serum, 100 U/ml penicillin/streptomycin (Cambrex BioScience Walkersville, #17-602E) and 1% fungizone (Invitrogen, #15290-018) at 37° C. in an atmosphere containing 5% CO2. The culture medium was changed every 3-5 days. Confluent cells were gently removed by a trypsin EDTA solution and re-plated on 35 mm glass bottom chambers (Bioptechs #04200415C) prior to imaging experiments 3-4 days later. Cells were maintained in plastic culture flasks until the final re-seeding of cells onto a glass bottom chamber and were passed up to 3 times for astrocyte only experiments. For co-culture experiments with neurons, primary astrocytes were plated directly onto corning transwell-clear permeable supports, which physically separates the two cell-types by ˜1 mm (# 07-200-170, Fisher scientific). Astrocytes were cultured in transwells until they were ˜70% confluent. Mouse cortical neurons (Cambrex Bio Science Walkersville Inc., # M-CX-300) were then cultured onto 6 well mat-tek glass bottom plates and maintained in Neurobasal Medium (Invitrogen, # 21103-049), 2 mM L-Glutamine (Cambrex BioScience Walkersville, #17-605E), 100 U/ml penicillin/streptomycin (Cambrex BioScience Walkersville, #17-602E) and B-27 with (Invitrogen, #17504-044) and without antioxidants (Invitrogen, #10889-038), which controls glia contamination to less than 0.5%. The transwell supports with cultured astrocytes were placed in the neuron seeded glass bottom chambers for four days before imaging and both cell types were then maintained in neuronal media. For neuron only experiments, the astrocytes on the transwell supports were removed prior to treatments and imaging.
(§2) Sensitivity of neurons to oxidative stress was assessed by treating cultures with 100 μM tert-butyl hydrogen peroxide (t-BuOOH, Sigma, #B-2633) for 3 hours. Neurons were then stained with Hoechst 33342 (10 μg/ml, Molecular Probes, #H-3570) to label all cell nuclei and calcein AM (2 μM, #C3100, Molecular Probes, #C3100). […] Calcein fluorescence is only observed in live cells that have maintained their plasma membrane integrity. Images were acquired on an inverted Nikon TE300 microscope with a Hamamatsu ORCAER camera and Open lab software (Improvision).
To determine whether P2Y-R enhanced mitochondrial metabolism in astrocytes affected neuronal resistance to oxidative stress, we prepared co-cultures of neurons and astrocytes using corning transwell-clear permeable supports, which physically separates the two cell-types by ˜1 mm (# 07-200-170, Fisher scientific). Primary cultures of astrocytes were directly prepared in transwell supports until they were ˜70% confluent. Mouse cortical neurons were then cultured onto glass bottom mattek plates and maintained in B-27/Neurobasal Medium to control glia contamination to less than 0.5% (Invitrogen). After four days, co-cultures were treated with t-buOOH (100 μM) for 4 hours with and without pre-stimulation of ATP (2 μM, 10 minutes). Cells were then stained with the DNA intercalating dye Hoechst 33342 (10 μg/ml, Molecular Probes, #H-3570) and calcein AM (2 μM, Molecular Probes, #C3100). […] We then tested the neuroprotective affects of isoform specific purinergic ligands 2-MeSADP(P2Y1-R) and UTP(P2Y2-R). FIG. 6A depicts histogram plots of the percentage of neurons alive when cocultured with young or old astrocytes. FIG. 6B depicts histogram plots of the percentage of neurons alive pretreated with either 2-MeSADP (2 μM) or UTP (50 μM) for 10 min. […]

[1] = test system: Neurons in the absence of astrocytes; experiment: Neuronal survival under t-buOOH in the absence of astrocytes (transwells removed before ligand treatment); assay type: cell-based, mouse
Method: as §1, §2
Activation of neuronal P2X receptors has been reported neurotoxic. Consequently, we further examined the affects of P2Y-R activation on neuronal survival in the absence of astrocytes. Neurons were co-cultured with astrocytes in transwell dishes that were removed from the cultures just prior to treating the neurons with purinergic ligands. Neurons in the absence of astrocytes were then exposed to t-buOOH (100 μM, 4.5 hours with normal B-27, 3 hours with antioxidant-free B-27) and cell viability was assessed by the ability of neurons to retain calcien. […] The same results were found for neurons initially co-cultured with old astrocytes. […]

astrocytes = experiment: Time until mitochondrial membrane potential (ΔΨ, TMRE) collapse during t-BuOOH oxidative stress; assay type: cell-based, mouse; details: for time until ΔΨ collapse: oligomycin 1 μg/ml 30 min pretreatment, t-buOOH 100 μM; for mean time until ΔΨ collapse: oligomycin pretreatment + extracellular ATP 10 minutes, then oxidative stress
Method: as §1
Mitochondrial membrane potentials (ΔΨs) was measured as previously described using the potential sensitive dye tetra-methyl rhodamine ethyl ester (TMRE, Molecular Probes, #T-669) (Lin and Lechleiter, 2002). Images were acquired with a 60× oil 1.4 NA objective on a Nikon PCM2000 confocal microscope custom adapted for two-photon imaging. A Ti-sapphire Coherent Mira 900 Laser pumped with a 5W Verdi laser (Coherent Inc., Santa Clara, Calif.) was used to excite TMRE at 800 nm A neutral-density filter wheel was used to attenuate the laser intensity so that no detectable photobleaching of TMRE was observed.
To investigate this, primary cultures of astrocytes were prepared from the brains of young (4-6 months) and old (26-28 months) mice and re-plated on glass coverslips prior to each imaging experiment as previously described. Seeded glass coverslips were then sealed in an open chamber (Bioptechs Delta T) and perfused at 37° C. with the potential sensitive dye tetramethyl rhodamine ethyl ester (TMRE, 200 nM, Molecular Probes/Invitrogen) to label astrocyte mitochondria. Mitochondrial membrane potentials (ΔΨs) were measured every 5 minutes using two-photon microscopy. Each image is a maximum intensity projection of a z-stack of six optical sections (1-μm steps). Scale bar is 10 μm. Plated cells were continuously perfused at 37° C. with culture medium containing TMRE (200 nM) and imaged with 2-photon microscopy (800 nm). Oxidative stress was applied to the cells in the perfusate with t-BuOOH (100 μM). Cell viability was then monitored by the collapse of ΔΨ (TMRE fluorescence) to 10% of its initial value. The time course of ΔΨ collapse is plotted for 3 astrocytes (A1, A2, A3) in each culture (FIGS. 1B and 2B). Fluorescent units are scaled to 100% at 0 hours. […]

[2] = neurons initially co-cultured with old astrocytes, astrocytes removed, t-buOOH 100 μM
[3] = neurons without astrocytes, normal B-27, t-buOOH 100 μM 4.5 hours

Row | SMILES | % neurons alive (neuronal survival) (Mouse cortical neurons; anti-oxidant-free B-27, 2-MeSADP 2 μM 10 minutes, t-buOOH 100 μM 3 hours) [%] | % neurons alive (Mouse cortical neurons; co-cultures, 10 min pre-treatment 2-MeSADP 2 μM or UTP 50 μM, 4.5 hours of t-buOOH) [%] | % neurons alive [1, 2] [%] | % neurons alive [1, 3] [%] | average time until ΔΨ collapse (astrocytes; old astrocytes, ATP 10 μM 10 min prior to t-BuOOH 100 μM) [h] | average time for ΔΨ to collapse (astrocytes; young astrocytes, ATP 10 μM 10 min prior to t-BuOOH 100 μM) [h] | neuronal survival (Mouse cortical neurons; co-cultured with old astrocytes, ATP 2 μM 10 minutes pre-stimulation, t-buOOH 100 μM 4 hours) [%] | neuronal survival (Mouse cortical neurons; co-cultured with young astrocytes, ATP 2 μM 10 minutes pre-stimulation, t-buOOH 100 μM 4 hours) [%] | % neurons alive ([1]; neurons without astrocytes, anti-oxidant-free B-27, t-buOOH 100 μM 3 hours) [%] | time until ΔΨ collapse (astrocytes; old astrocytes) [h] | mean time until ΔΨ collapse (astrocytes; old astrocytes) | time until ΔΨ collapse (astrocytes; young astrocytes) [h] | mean time until ΔΨ collapse (astrocytes; young astrocytes) | neuronal survival (Mouse cortical neurons; anti-oxidant-free B-27, oligomycin 0.01 μM 30 minutes + 2-MeSADP, t-buOOH 3 hours) [%] | neuronal survival (Mouse cortical neurons; anti-oxidant-free B-27, oligomycin 0.01 μM 30 minutes, t-buOOH 3 hours) [%]
1 | CSc1nc(N)c2ncn([C@@H]3O[C@H](COP(=O)(O)OP(=O)(O)O)[C@@H](O)[C@H]3O)c2n1 [2-MeSADP] | 43±3 | 70±2 | 72±3 | 74±3 | – | – | – | – | – | – | – | – | – | – | –
2 | Nc1ncnc2c1ncn2[C@@H]1O[C@H](COP(=O)(O)OP(=O)(O)OP(=O)(O)O)[C@@H](O)[C@H]1O [ATP] | – | – | 49±6 | 56±7 | 6.65 ± 0.24 | 7.35 ± 0.23 | 87±2 | 87±2 | 18±2 | – | – | – | – | – | –
3 | CC[C@H]1/C=C/C=C/C[C@@H](C)[C@H](O)[C@@](C)(O)C(=O)[C@@H](C)[C@H](O)[C@@H](C)C(=O)[C@@H](C)[C@H](O)[C@@H](C)/C=C/C(=O)O[C@@H]2[C@H](C)[C@H](CC1)O[C@]1(CC[C@H](C)[C@H](C[C@@H](C)O)O1)[C@H]2C [oligomycin] | – | – | – | – | – | – | – | – | – | 4.16 ± 0.14 | 3.21±0.08 | 5.15 ± 0.08 | 4.69±0.23 | 26±3 | 25±3
